Entries after “also recorded” stand apart in the source; their conditions may differ. Starred links: 1 amine or outer side, 2 acyl side, 3 side chain; linkers in the order of their positions; H or OH if unused. Non-standard residues stand in square brackets, D forms with d. Residues, ends and D or L forms follow the SMILES beside them. Groups on a side chain read outwards from the residue. No end group written: not given here. *: point of attachment. miniPEG = miniature polyethylene glycol spacer (mPEG); C18 diacid = O=C(O)CCCCCCCCCCCCCCCCC(=O)*; γGlu = O=C(O)[C@H](CCC(=O)[*:2])N[*:1]; Palmitoyl = CCCCCCCCCCCCCCCC(=O)*; pGlu = O=C1CC[C@@H](C(=O)O)N1
Tests used:
[1] = system: mice; assay: Glucose tolerance test after subcutaneous GLP-1 antagonist; type: in vivo; details: s.c. antagonist, 4 h later i.p. glucose 1.5 g/kg, FIGS. 2A, 2B
Protocol: FIGS. 2A & 2B present data from a glucose tolerance test wherein mice are subcutaneously administered the GLP-1 antagonist followed four hours later by intraperitoneal administration of glucose (1.5 g glucose per kg body weight).
C57Bl/6 mice were obtained from Jackson Laboratories. Mice were single-or group-housed on a 12:12 h light-dark cycle at 22° C. with free access to food and water. All studies were approved by and performed according to the guidelines of the Institutional Animal Care and Use Committee of the University of Cincinnati.
For the determination of glucose tolerance, mice were subjected to 6 h of fasting and injected intraperitoneally with glucose. Injections consisted of 1.5 g glucose per kg body weight (25% w/v D-glucose (Sigma) in 0.9% w/v saline). Tail blood glucose levels (mg dL-1) were measured using a hand-held glucometer (FreeStyle Freedom Lite) before 0 min and at 15, 30, 60, and 120 min after injection.
Mice received a subcutaneous injection of peptide (in PBS) either 1, 4, 8, 24, 48, 72, or 120 at varying doses before being challenged with an IP injection of dipeptidyl peptidase-IV-protected Ex-4 (0.65 nmol kg-1). A GTT was performed fifteen minutes after the GLP-1 injection. Tail blood glucose values were obtained as described above.

[2] = biological target: T1, GLP-1R (Homo sapiens, UniProt P43220); details: after site-specific acylation of the human-based antagonist; cited from earlier work
Target sequence in this assay (P43220 24-463, species assumed): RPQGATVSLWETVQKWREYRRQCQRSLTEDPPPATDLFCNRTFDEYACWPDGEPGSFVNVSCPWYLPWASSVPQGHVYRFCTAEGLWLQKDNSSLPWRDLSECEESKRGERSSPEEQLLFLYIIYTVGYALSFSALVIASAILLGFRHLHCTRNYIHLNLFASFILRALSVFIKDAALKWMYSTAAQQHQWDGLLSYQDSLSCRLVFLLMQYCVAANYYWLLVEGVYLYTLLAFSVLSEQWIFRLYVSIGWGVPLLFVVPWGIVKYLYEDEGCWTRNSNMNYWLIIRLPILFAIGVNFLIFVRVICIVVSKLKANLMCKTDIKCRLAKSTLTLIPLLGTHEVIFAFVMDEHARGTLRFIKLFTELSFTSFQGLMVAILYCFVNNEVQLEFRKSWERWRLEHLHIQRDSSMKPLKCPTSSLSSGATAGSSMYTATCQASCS

[3] = biological target: T2, GIP receptor (Homo sapiens, UniProt P48546); details: GLP-1 receptor versus GIP receptor; cited from earlier work
T2 sequence (P48546 22-466): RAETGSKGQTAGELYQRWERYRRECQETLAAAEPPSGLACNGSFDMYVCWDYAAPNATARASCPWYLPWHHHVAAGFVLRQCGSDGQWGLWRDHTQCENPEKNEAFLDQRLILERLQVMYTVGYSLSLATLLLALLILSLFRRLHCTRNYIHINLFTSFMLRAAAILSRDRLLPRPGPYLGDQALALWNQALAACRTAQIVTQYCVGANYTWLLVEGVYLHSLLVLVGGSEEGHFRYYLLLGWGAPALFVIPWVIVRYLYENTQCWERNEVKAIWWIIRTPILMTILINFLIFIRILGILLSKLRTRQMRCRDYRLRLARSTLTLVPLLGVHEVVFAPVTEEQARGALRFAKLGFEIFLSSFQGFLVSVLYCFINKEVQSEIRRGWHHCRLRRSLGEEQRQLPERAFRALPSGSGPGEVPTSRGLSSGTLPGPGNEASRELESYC

[4] = biological target: T1, GLP-1R; assay: IC50 nM; set-up: host or cells: HEK 293
Protocol: Table printed on a drawing sheet, Fig. 10
Head of the field: IC50 nM
Where the first naming reader finds the target: description_of_the_figure: as measured in an in vitro assay using GLP-1R over-expressing 293 cells
Target sequence in this assay (P43220 24-463 limits assumed): as the sequence (P43220 24-463, species assumed) above

[5] = system: mice; assay: Blood glucose levels in mice subcutaneously injected with GLP-1 antagonist; type: in vivo; details: s.c. 10, 30, 100, 300 nmol/kg, measured at 24, 48, 72 hrs, FIG. 8
Excerpt: over time, where X=C18-diacid and O=Lys(C18-diacid).

[6] = biological target: human GLP-1 receptor (human, UniProt P43220 24-463); assay: cell-based or functional assay

DVSRYLEEQAVREFIEWLVRGGPSSGAPPPSK[miniPEG-γE-C16]-OH (DVSRYLEEQAVREFIEWLVRGGPSSGAPPPSK([miniPEG-γGlu-Palmitoyl])-OH) [SEQ ID NO: 16]
GLP-1 antagonist activity in glucose tolerance test [1]: full antagonist; also recorded: much higher potency than the GLP-1 antagonist Ex-9-40

DVSSYLEEQAVREFIAWLVKGGPSSGAPPPSK[C16]-OH (DVSSYLEEQAVREFIAWLVKGGPSSGAPPPSK(Palmitoyl)-OH) [SEQ ID NO: 3]
potency as a GLP-1 receptor antagonist [2]: increased potency
selectivity relative to the GIP receptor [3]: 10 fold

CC[C@H](C)[C@H](NC(=O)[C@H](Cc1ccccc1)NC(=O)[C@H](CCC(=O)O)NC(=O)[C@H](CCCNC(=N)N)NC(=O)[C@@H](NC(=O)[C@H](C)NC(=O)[C@H](CCC(N)=O)NC(=O)[C@H](CCC(=O)O)NC(=O)[C@H](CCC(=O)O)NC(=O)[C@H](CC(C)C)NC(=O)[C@H](Cc1ccc(O)cc1)NC(=O)[C@H](CO)NC(=O)[C@H](CO)NC(=O)[C@@H](NC(=O)[C@H](CC(=O)O)NC(=O)CNC(=O)[C@H](CCCCNC(=O)CCCCCCCCCCCCCCCCC(=O)O)NC(=O)[C@@H]1CCC(=O)N1)C(C)C)C(C)C)C(=O)N[C@@H](C)C(=O)N[C@@H](Cc1c[nH]c2ccccc12)C(=O)N[C@@H](CC(C)C)C(=O)N[C@H](C(=O)N[C@@H](CCCNC(=N)N)C(=O)NCC(=O)NCC(=O)N1CCC[C@H]1C(=O)N[C@@H](CO)C(=O)N[C@@H](CO)C(=O)NCC(=O)N[C@@H](C)C(=O)N1CCC[C@H]1C(=O)N1CCC[C@H]1C(=O)N1CCC[C@H]1C(=O)N[C@@H](CO)C(=O)O)C(C)C [compound 1417] ([pGlu]K(C18 diacid)GDVSSYLEEQAVREFIAWLVRGGPSSGAPPPS-OH)
IC50 [4]: 80 nM

X-DVSSYLEEQAVREFIAWLVRGGPSSGAPPPSO-acid [MBX 1407]
glucose blood levels [5]: dose dependent response

CC[C@H](C)[C@H](NC(=O)[C@H](Cc1ccccc1)NC(=O)[C@H](CCC(=O)O)NC(=O)[C@H](CCCNC(=N)N)NC(=O)[C@@H](NC(=O)[C@H](C)NC(=O)[C@H](CCC(N)=O)NC(=O)[C@H](CCC(=O)O)NC(=O)[C@H](CCC(=O)O)NC(=O)[C@H](CC(C)C)NC(=O)[C@H](Cc1ccc(O)cc1)NC(=O)[C@H](CO)NC(=O)[C@H](CO)NC(=O)[C@@H](NC(=O)[C@H](CC(=O)O)NC(=O)CCCCCCCCCCCCCCCCC(=O)O)C(C)C)C(C)C)C(=O)N[C@@H](C)C(=O)N[C@@H](Cc1c[nH]c2ccccc12)C(=O)N[C@@H](CC(C)C)C(=O)N[C@H](C(=O)N[C@@H](CCCNC(=N)N)C(=O)NCC(=O)NCC(=O)N1CCC[C@H]1C(=O)N[C@@H](CO)C(=O)N[C@@H](CO)C(=O)NCC(=O)N[C@@H](C)C(=O)N1CCC[C@H]1C(=O)N1CCC[C@H]1C(=O)N1CCC[C@H]1C(=O)N[C@@H](CO)C(=O)O)C(C)C [compound 1416] ({C18 diacid}-DVSSYLEEQAVREFIAWLVRGGPSSGAPPPS-OH)
IC50 [4]: 36 nM

B1: Ex9-39amide, dK7 (PEG2-γE(C16)), G8 (peptide)
peptide: XGDLSKQMEEEAVRLFIEWLKNGGPSSGAPPPS
modifications: dK at position 7 acylated with Peg2-gE(C16); C-terminal amide (-NH2)
IC50 (nM): block of cAMP induction by GLP-1 (0.05 nM), luciferase reporter in HEK 293 cells with human GLP-1 receptor [6]: 6.2 nM

Source: patent US20240058422A1, “GLUCAGON-LIKE PEPTIDE-1 RECEPTOR ANTAGONISTS” (INDIANA UNIVERSITY RESEARCH AND TECHNOLOGY CORPORATION, priority 2022, published 2024)
